Values quoted from earlier work, collected in patent publication US20120302534A1, “DERIVATIVES OF BETULIN” (priority 2010, published 2012).

Tested on: HIV

Compound: C=C(C)[C@@H]1CC[C@]2(C(=O)O)CC[C@]3(C)[C@H](CC[C@@H]4[C@@]5(C)CC[C@H](OC(=O)CC(C)(C)C(=O)O)C(C)(C)[C@@H]5CC[C@]43C)[C@@H]12 [Bevirimat]
- reduced HIV viral load by a mean of (patients who achieved trough levels of >=20 μg/mL and without key baseline Gag polymorphisms at Q369, V370 or T371): 1.3 log10/mL
- viral load reduction versus patients without Gag polymorphisms (users with Gag polymorphisms at Q369, V370 or T371): significantly lower load reductions
